What all share (assay): DTP human tumour cell line panel, 48 h
Experiment [1] deals with 786-0 renal.
Experiment [2] relates to MDA-MB-231 breast.
Experiment [3] concerns RPMI-8226 leukemia.
The subject of experiment [4] is NCI-H522 lung.
Experiment [5] concerns SK-MEL-5 melanoma.
The test system of experiment [6] is HT29 colon.
In experiment [7] the test system is UACC-62 melanoma.
Experiment [8] has as its system SK-MEL-2 melanoma.
The subject of experiment [9] is NCI-H460 lung.
In experiment [10] the test system is A498 renal.

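48-hour exposure; five concentrations; linearly interpolated endpoints. GI50 is the concentration that inhibits growth by half. TGI marks complete inhibition of growth.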

As for `Cc1cccc(N2C(=O)/C(=C/C(Cl)=C/c3ccc([N+](=O)[O-])cc3)SC2=S)c1C`, the GI50 – broadly, the concentration giving 50% growth inhibition – in experiment [1] was 2.07 µM; in experiment [2], 2.2 µM; in [3], 0.439 µM; in experiment [4], 2.18 µM; in experiment [5], 1.49 µM; in experiment [6] it was 1.13 µM. Besides, the GI50 in experiment [7] is 1.7 µM; in [8], 3.85 µM. In addition, the concentration for total growth inhibition (TGI) (as a rule, the concentration giving total growth inhibition) was 4.68 µM in [1]; 5.52 µM in [2]; 2.04 µM in experiment [3]; 5.58 µM in experiment [4]; 2.91 µM in experiment [5]; above 100 µM in [6]. Moreover, the TGI in experiment [7] is 3.86 µM; in experiment [8], above 100 µM.
With `N#Cc1nc(CCc2nc(C#N)c(N)o2)oc1N`, the TGI in experiment [1], in [2], in experiment [3], in [4], in experiment [9] and in experiment [5] was above 10 µM each time. For the same compound, the TGI in [6] and in [7] was above 10 µM throughout.
For `C=C(C)C1CC(=O)C(C)=C(O)C1` (stereo not drawn), the TGI in experiment [1], in [2], in [4], in experiment [9], in experiment [5] and in [6] was above 100 µM throughout. Further, the TGI in experiment [7] and in experiment [8] was above 100 µM throughout.
Take `O=C1c2ccccc2-c2nc3ccncc3n21`: the TGI in [1], in experiment [3], in experiment [4], in experiment [9], in experiment [6] and in experiment [7] was above 100 µM in each case. The TGI in experiment [8] was above 100 µM.
Regarding `COC1(OC)C2(Cl)C3=CCCC=C3C1(Cl)C(Cl)=C2Cl`, the TGI was above 100 µM in [1]; 34 µM in experiment [3]; 33 µM in experiment [4]; above 100 µM in [9]; 29.2 µM in [5]; 84.3 µM in [6]. Moreover, the values for the TGI in experiment [7] and in experiment [8] were above 100 µM and 36 µM, respectively.
Take `COc1cc(C)c2c(c1)CN1CN2Cc2cc(OC)cc(C)c21`: the TGI in experiment [1] was above 100 µM; in [3], above 100 µM; in [4], above 100 µM; in experiment [9] it was above 100 µM; in [5], 14.4 µM; in experiment [6] it was above 100 µM. Moreover, the TGI in experiment [7] was 79 µM; in experiment [8] it was above 100 µM.
As for `Cc1cccc(C)c1NC(=O)C(=O)Cc1nc2ccccc2s1`, the TGI in experiment [1], in experiment [3], in [4], in experiment [9], in experiment [5] and in [6] was above 100 µM each time. For the same compound, the TGI in [7], in experiment [8] and in experiment [10] was above 100 µM in each case.
As for `Cn1c(=O)oc2cc(C3CCC(=O)N3Cc3csc(-c4ccccc4)n3)ccc21` (stereo not drawn), the TGI in [1], in experiment [3], in experiment [4], in experiment [9], in [5] and in experiment [6] was above 100 µM each time. Also, the TGI in experiment [7] and in experiment [8] was above 100 µM each time.
For `Cc1cc(Cl)ccc1NC(=O)CCCC(=O)C1C/C(=N/O)CC/C1=N\O` (stereo not drawn), the TGI in experiment [1], in experiment [3], in [4], in experiment [9], in experiment [5] and in experiment [6] was above 100 µM in each case. Moreover, the TGI in [7], in experiment [8] and in experiment [10] was above 100 µM each time.
Take `O=c1c(Cc2ccccc2)c(O)cc2n1CCC2`: the total growth inhibition concentration (TGI) in [1], in [3], in experiment [4], in experiment [9], in experiment [5] and in [6] was above 100 µM each time. The TGI in experiment [7] and in experiment [10] was above 100 µM in each case.
`CCOc1c(Br)cc(Br)cc1C=C(C#N)C#N`: the TGI in experiment [1], in [3], in [9], in [5], in [6] and in experiment [7] was above 10 µM throughout. Further, the TGI is above 10 µM in [8] and 8.8 µM in experiment [10].
Consider `CN1CCCC2[C@@H]3CCC4c5nonc5CC[C@]4(C)C3CC[C@@]21C` (stereo partly drawn), for which the TGI in experiment [1], in [3], in experiment [4], in experiment [9], in [5] and in experiment [6] was above 100 µM each time. Moreover, the TGI in [7] and in [8] was above 100 µM throughout.
With `O=c1[nH]ccc(CNC23CC4CC(CC(C4)C2)C3)c1O`, the TGI in experiment [1] is above 100 µM; in [3], above 100 µM; in experiment [4] it was 52.7 µM; in experiment [9], above 100 µM; in experiment [5] it was above 100 µM; in experiment [6] it was above 100 µM. Besides, the TGI in experiment [7], in experiment [8] and in experiment [10] was above 100 µM in each case.
Turning to `CCN(CC)C(=S)SSC(C)C`, the GI50 is 17.3 µM in experiment [1]; 14.6 µM in experiment [2]; 1.94 µM in experiment [3]; 0.0295 µM in experiment [4]; 11.6 µM in experiment [5]; 14.8 µM in experiment [6]. The GI50 was 16.7 µM in [7] and 23.3 µM in [8]. Further, the TGI in [1] came out at 31.7 µM; in experiment [2], 32.5 µM; in experiment [3] it was 18.4 µM; in experiment [4], 1.34 µM; in experiment [5], 24.2 µM; in experiment [6] it was 29.8 µM. Besides, the TGI came to 35.4 µM in [7] and 62 µM in experiment [8].
`Cc1cc2c(c(C(=O)O)c1C)-c1cccc(Cl)c1C2=O`: the TGI in experiment [1], in experiment [3], in experiment [4], in experiment [9], in experiment [5] and in experiment [6] was above 100 µM each time. Moreover, the TGI in experiment [7] and in experiment [8] was above 100 µM in each case.

These data come from PubChem BioAssay (NCI).
